Measurements: patent US20230073777A1, “CYCLIC-AMP RESPONSE ELEMENT BINDING PROTEIN (CBP) AND/OR ADENOVIRAL E1A BINDING PROTEIN OF 300 KDA (P300) DEGRADATION COMPOUNDS AND METHODS OF USE” (CULLGEN (SHANGHAI), INC., priority 2019, published 2023)
Read-outs that look alike come from different tables or passages of the source.

Key:
[1] = system: LNCaP cells; assay: LNCaP cell viability assay (CellTiter-Glo); type: cell-based; conditions: Homo sapiens, 72 h, LNCaP prostate cancer cell viability inhibition, 3 days
Outline: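 Three-day treatment of LNCaP cells (5000 per well) across a 12-point, 3-fold dilution series starting at 10 μM. ATP luminescence (CellTiter-Glo) relative to untreated controls gave dose-response curves fitted nonlinearly for IC50.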

[2] = biological target: P300 (Homo sapiens, UniProt Q09472); assay: Immunoblotting of P300 protein levels in LNCaP or 22RV1 cells; type: cell-based; set-up: LNCaP or 22RV1 cells that express CBP/P300 proteins were treated with GNE-781 or the bivalent compounds; endogenous in cells; host or cells: LNCaP (clone FGC) or 22RV1 cells; conditions: read-out: Degradation (10 nM)
Outline: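 P300/CBP levels quantified by chemiluminescent immunoblot band densitometry, normalized against tubulin or vinculin loading controls. Lysates came from LNCaP or 22RV1 cells exposed to compounds or DMSO vehicle for indicated times.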

[3] = percentage of inhibition of p300 at 10 nM (Table 3)
[4] = percentage of inhibition of p300 at 10 nM (Table 2)

P300, sequence (Q09472 whole entry): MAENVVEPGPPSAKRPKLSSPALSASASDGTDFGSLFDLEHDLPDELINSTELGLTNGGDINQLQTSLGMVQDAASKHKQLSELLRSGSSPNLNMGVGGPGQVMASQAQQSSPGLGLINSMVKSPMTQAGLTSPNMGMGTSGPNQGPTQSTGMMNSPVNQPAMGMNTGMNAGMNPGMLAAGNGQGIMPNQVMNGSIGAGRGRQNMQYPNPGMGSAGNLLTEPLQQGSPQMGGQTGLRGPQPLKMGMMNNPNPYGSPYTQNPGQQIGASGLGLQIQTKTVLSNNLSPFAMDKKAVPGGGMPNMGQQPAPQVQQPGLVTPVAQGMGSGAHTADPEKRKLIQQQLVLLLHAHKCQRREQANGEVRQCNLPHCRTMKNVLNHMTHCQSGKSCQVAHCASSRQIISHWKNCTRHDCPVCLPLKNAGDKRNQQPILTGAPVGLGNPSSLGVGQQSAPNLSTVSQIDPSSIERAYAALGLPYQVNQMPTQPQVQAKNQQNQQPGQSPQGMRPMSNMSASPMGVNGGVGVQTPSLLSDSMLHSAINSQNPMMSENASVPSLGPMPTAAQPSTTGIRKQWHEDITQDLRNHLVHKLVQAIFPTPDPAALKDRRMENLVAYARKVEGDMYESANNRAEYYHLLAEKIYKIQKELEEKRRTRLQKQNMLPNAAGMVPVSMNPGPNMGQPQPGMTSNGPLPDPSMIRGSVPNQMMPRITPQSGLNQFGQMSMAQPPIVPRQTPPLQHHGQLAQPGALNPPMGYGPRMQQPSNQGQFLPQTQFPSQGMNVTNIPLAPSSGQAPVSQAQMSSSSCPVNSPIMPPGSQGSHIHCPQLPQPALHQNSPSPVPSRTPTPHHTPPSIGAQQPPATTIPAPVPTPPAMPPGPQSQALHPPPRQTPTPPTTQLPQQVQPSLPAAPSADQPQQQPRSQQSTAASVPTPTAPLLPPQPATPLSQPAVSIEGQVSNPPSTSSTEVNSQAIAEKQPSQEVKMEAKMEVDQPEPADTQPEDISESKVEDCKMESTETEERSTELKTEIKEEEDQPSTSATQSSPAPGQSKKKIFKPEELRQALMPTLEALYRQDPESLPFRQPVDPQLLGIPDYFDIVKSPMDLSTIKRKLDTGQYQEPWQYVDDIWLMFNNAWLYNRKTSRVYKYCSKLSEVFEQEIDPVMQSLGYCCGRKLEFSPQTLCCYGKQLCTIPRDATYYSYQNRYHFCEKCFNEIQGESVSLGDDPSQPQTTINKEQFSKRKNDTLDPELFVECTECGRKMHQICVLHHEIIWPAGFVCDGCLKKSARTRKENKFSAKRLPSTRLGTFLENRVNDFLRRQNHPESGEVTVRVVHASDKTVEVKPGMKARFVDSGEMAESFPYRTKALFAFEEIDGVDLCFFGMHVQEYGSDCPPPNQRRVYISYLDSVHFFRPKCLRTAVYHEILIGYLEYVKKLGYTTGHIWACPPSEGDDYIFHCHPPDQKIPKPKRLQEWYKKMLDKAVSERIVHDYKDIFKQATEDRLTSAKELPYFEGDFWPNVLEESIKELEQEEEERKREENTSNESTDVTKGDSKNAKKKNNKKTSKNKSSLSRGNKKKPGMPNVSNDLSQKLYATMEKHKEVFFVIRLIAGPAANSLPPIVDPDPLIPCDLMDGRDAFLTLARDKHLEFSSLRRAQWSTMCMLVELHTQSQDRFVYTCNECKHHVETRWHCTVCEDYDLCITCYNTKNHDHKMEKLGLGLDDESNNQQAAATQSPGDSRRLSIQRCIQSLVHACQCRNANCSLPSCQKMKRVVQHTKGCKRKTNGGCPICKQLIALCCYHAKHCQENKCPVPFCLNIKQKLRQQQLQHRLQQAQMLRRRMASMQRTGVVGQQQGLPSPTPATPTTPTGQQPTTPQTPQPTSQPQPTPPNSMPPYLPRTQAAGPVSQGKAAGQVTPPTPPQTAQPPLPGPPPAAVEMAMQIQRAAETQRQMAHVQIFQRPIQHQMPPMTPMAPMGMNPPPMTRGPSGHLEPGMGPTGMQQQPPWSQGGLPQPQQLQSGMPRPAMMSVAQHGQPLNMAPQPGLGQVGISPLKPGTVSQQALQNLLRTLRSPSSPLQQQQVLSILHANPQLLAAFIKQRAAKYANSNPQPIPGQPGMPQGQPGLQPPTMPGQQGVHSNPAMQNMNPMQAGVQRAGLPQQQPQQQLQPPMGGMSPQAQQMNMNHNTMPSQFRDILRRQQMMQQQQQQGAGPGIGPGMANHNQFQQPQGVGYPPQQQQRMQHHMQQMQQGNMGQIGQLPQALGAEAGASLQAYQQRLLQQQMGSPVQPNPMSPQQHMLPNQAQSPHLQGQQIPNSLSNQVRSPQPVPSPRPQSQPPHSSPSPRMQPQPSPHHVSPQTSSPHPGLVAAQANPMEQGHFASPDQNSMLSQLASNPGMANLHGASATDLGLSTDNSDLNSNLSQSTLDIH

SMILES | IC50 ([1]; CellTiter-Glo (Table 3)) | inhibition at 0.01 µM [2, 3] | IC50 ([1]; CellTiter-Glo (Table 2)) | inhibition at 0.01 µM [2, 4] | inhibition at 0.01 µM [2]
CC(=O)N1CCc2c(c(N3CCCc4cc(-c5cnn(C)c5)c(C(F)F)cc43)nn2C2CCN(C(=O)CCC3CN(Cc4cccc5c4C(=O)N(C4CCC(=O)NC4=O)C5=O)C3)CC2)C1 (stereo not shown) [P-156, 4-((3-(3-(4-(5-Acetyl-3-(7-(difluoromethyl)-6-(1-methyl-1H-pyrazol-4-yl)-3,4-dihydroquinolin-1(2H)-yl)-4,5,6,7-tetrahydro-1H-pyrazolo[4,3-c]pyridin-1-yl)piperidin-1-yl)-3-oxopropyl)azetidin-1-yl)methyl)-2-(2,6-dioxopiperidin-3-yl)isoindoline-1,3-dione] | > 0.5 µM | < 20% | – | – | –
CNC(=O)N1CCc2c(c(N3CCCc4cc(-c5cnn(CC(=O)NCCCNc6cccc7c6C(=O)N(C6CCC(=O)NC6=O)C7=O)c5)c(C(F)F)cc43)nn2C2CCOCC2)C1 (stereo not shown) [P-038, 3-(7-(Difluoromethyl)-6-(1-(2-((3-((2-(2,6-dioxopiperidin-3-yl)-1,3-dioxoisoindolin-4-yl)amino)propyl)amino)-2-oxoethyl)-1H-pyrazol-4-yl)-3,4-dihydroquinolin-1(2H)-yl)-N-methyl-1-(tetrahydro-2H-pyran-4-yl)-1,4,6,7-tetrahydro-5H-pyrazolo[4,3-c]pyridine-5-carboxamide] | – | – | 0.385 µM | < 20% | –
CC(=O)N1CCc2c(c(N3CCCc4cc(-c5cnn(C)c5)c(C(F)F)cc43)nn2C2CCN(C(=O)CCCCCn3c(=O)n(C4CCC(=O)NC4=O)c4ccccc43)CC2)C1 (stereo not shown) [P-107, 3-(3-(6-(4-(5-Acetyl-3-(7-(difluoromethyl)-6-(1-methyl-1H-pyrazol-4-yl)-3,4-dihydroquinolin-1(2H)-yl)-4,5,6,7-tetrahydro-1H-pyrazolo[4,3-c]pyridin-1-yl)piperidin-1-yl)-6-oxohexyl)-2-oxo-2,3-dihydro-1H-benzo[d]imidazol-1-yl)piperidine-2,6-dione] | 0.0204 µM | – | – | – | 50 to 80%
CNC(=O)N1CCc2c(c(N3CCCc4cc(-c5cnn(CC(=O)NCCCNc6ccc7c(c6)C(=O)N(C6CCC(=O)NC6=O)C7=O)c5)c(C(F)F)cc43)nn2C2CCOCC2)C1 (stereo not shown) [P-017, 3-(7-(Difluoromethyl)-6-(1-(2-((3-((2-(2,6-dioxopiperidin-3-yl)-1,3-dioxoisoindolin-5-yl)amino)propyl)amino)-2-oxoethyl)-1H-pyrazol-4-yl)-3,4-dihydroquinolin-1(2H)-yl)-N-methyl-1-(tetrahydro-2H-pyran-4-yl)-1,4,6,7-tetrahydro-5H-pyrazolo[4,3-c]pyridine-5-carboxamide] | – | – | 0.0992 µM | < 20% | –
CNC(=O)N1CCc2c(c(N3CCCc4cc(-c5cnn(CC(=O)NCCOCCOCCOCCOCCOCCNc6cccc7c6C(=O)N(C6CCC(=O)NC6=O)C7=O)c5)c(C(F)F)cc43)nn2C2CCOCC2)C1 (stereo not shown) [P-025, 3-(7-(Difluoromethyl)-6-(1-(20-((2-(2,6-dioxopiperidin-3-yl)-1,3-dioxoisoindolin-4-yl)amino)-2-oxo-6,9,12,15,18-pentaoxa-3-azaicosyl)-1H-pyrazol-4-yl)-3,4-dihydroquinolin-1(2H)-yl)-N-methyl-1-(tetrahydro-2H-pyran-4-yl)-1,4,6,7-tetrahydro-5H-pyrazolo[4,3-c]pyridine-5-carboxamide] | – | – | 1.25 µM | < 20% | –
CC(=O)N1CCc2c(c(N3CCCc4cc(-c5cnn(C)c5)c(C(F)F)cc43)nn2C2CCN(C(=O)CCCCCCCn3c(=O)n(C4CCC(=O)NC4=O)c4ccccc43)CC2)C1 (stereo not shown) [P-135, 3-(3-(8-(4-(5-acetyl-3-(7-(difluoromethyl)-6-(1-methyl-1H-pyrazol-4-yl)-3,4-dihydroquinolin-1(2H)-yl)-4,5,6,7-tetrahydro-1H-pyrazolo[4,3-c]pyridin-1-yl)piperidin-1-yl)-8-oxooctyl)-2-oxo-2,3-dihydro-1H-benzo[d]imidazol-1-yl)piperidine-2,6-dione] | 0.0007 µM | – | – | – | > 80%
CNC(=O)N1CCc2c(c(N3CCCc4cc(-c5cnn(C)c5)c(C(F)F)cc43)nn2C2CCN(C(=O)COCCOCC(=O)N[C@H](C(=O)N3C[C@H](O)C[C@H]3C(=O)NCc3ccc(-c4scnc4C)cc3)C(C)(C)C)CC2)C1 [P-066, 3-(7-(Difluoromethyl)-6-(1-methyl-1H-pyrazol-4-yl)-3,4-dihydroquinolin-1(2H)-yl)-1-(1-(2-(2-(2-(((S)-1-((2S,4R)-4-hydroxy-2-((4-(4-methylthiazol-5-yl)benzyl)carbamoyl)pyrrolidin-1-yl)-3,3-dimethyl-1-oxobutan-2-yl)amino)-2-oxoethoxy)ethoxy)acetyl)piperidin-4-yl)-N-methyl-1,4,6,7-tetrahydro-5H-pyrazolo[4,3-c]pyridine-5-carboxamide] | 0.135 µM | < 20% | – | – | –
CNC(=O)N1CCc2c(c(N3CCCc4cc(-c5cnn(CC(=O)NCCOCCOCCOCCOCCNc6cccc7c6C(=O)N(C6CCC(=O)NC6=O)C7=O)c5)c(C(F)F)cc43)nn2C2CCOCC2)C1 (stereo not shown) [P-024, 3-(7-(Difluoromethyl)-6-(1-(17-((2-(2,6-dioxopiperidin-3-yl)-1,3-dioxoisoindolin-4-yl)amino)-2-oxo-6,9,12,15-tetraoxa-3-azaheptadecyl)-1H-pyrazol-4-yl)-3,4-dihydroquinolin-1(2H)-yl)-N-methyl-1-(tetrahydro-2H-pyran-4-yl)-1,4,6,7-tetrahydro-5H-pyrazolo[4,3-c]pyridine-5-carboxamide] | – | – | 0.524 µM | < 20% | –
CNC(=O)N1CCc2c(c(N3CCCc4cc(-c5cnn(C)c5)c(C(F)F)cc43)nn2C2CCN(C(=O)CN3CCC(CNc4cccc5c4C(=O)N(C4CCC(=O)NC4=O)C5=O)CC3)CC2)C1 (stereo not shown) [P-102] | 0.0149 µM | 50 to 80% | – | – | –
CC(=O)N1CCc2c(c(N3CCCc4cc(-c5cnn(C)c5)c(C(F)F)cc43)nn2C2CCN(CCN3CCC(CCc4cccc5c4C(=O)N(C4CCC(=O)NC4=O)C5=O)CC3)CC2)C1 (stereo not shown) [P-157, 4-(2-(1-(2-(4-(5-acetyl-3-(7-(difluoromethyl)-6-(1-methyl-1H-pyrazol-4-yl)-3,4-dihydroquinolin-1(2H)-yl)-4,5,6,7-tetrahydro-1H-pyrazolo[4,3-c]pyridin-1-yl)piperidin-1-yl)ethyl)piperidin-4-yl)ethyl)-2-(2,6-dioxopiperidin-3-yl)isoindoline-1,3-dione] | 0.0032 µM | 50 to 80% | – | – | –
CNC(=O)N1CCc2c(c(N3CCCc4cc(-c5cnn(C)c5)c(C(F)F)cc43)nn2C2CCN(C(=O)CCCCCCNc3ccc4c(c3)n(C)c(=O)n4C3CCC(=O)NC3=O)CC2)C1 (stereo not shown) [P-129, 3-(7-(difluoromethyl)-6-(1-methyl-1H-pyrazol-4-yl)-3,4-dihydroquinolin-1(2H)-yl)-1-(1-(7-((1-(2,6-dioxopiperidin-3-yl)-3-methyl-2-oxo-2,3-dihydro-1H-benzo[d]imidazol-5-yl)amino)heptanoyl)piperidin-4-yl)-N-methyl-1,4,6,7-tetrahydro-5H-pyrazolo[4,3-c]pyridine-5-carboxamide] | 0.0002 µM | > 80% | – | – | –
CNC(=O)N1CCc2c(c(N3CCCc4cc(-c5cnn(C)c5)c(C(F)F)cc43)nn2C2CCN(C(=O)CCCCC#Cc3cccc4c3C(=O)N(C3CCC(=O)NC3=O)C4=O)CC2)C1 (stereo not shown) [P-092, 3-(7-(Difluoromethyl)-6-(1-methyl-1H-pyrazol-4-yl)-3,4-dihydroquinolin-1(2H)-yl)-1-(1-(7-(2-(2,6-dioxopiperidin-3-yl)-1,3-dioxoisoindolin-4-yl)hept-6-ynoyl)piperidin-4-yl)-N-methyl-1,4,6,7-tetrahydro-5H-pyrazolo[4,3-c]pyridine-5-carboxamide] | 0.0565 µM | 20 to 50% | – | – | –
CNC(=O)N1CCc2c(c(N3CCCc4cc(-c5cnn(C)c5)c(C(F)F)cc43)nn2C2CCN(C(=O)CCCCCCC(=O)N[C@H](C(=O)N3C[C@H](O)C[C@H]3C(=O)NCc3ccc(-c4scnc4C)cc3)C(C)(C)C)CC2)C1 [P-060, 3-(7-(Difluoromethyl)-6-(1-methyl-1H-pyrazol-4-yl)-3,4-dihydroquinolin-1(2H)-yl)-1-(1-(8-(((S)-1-((2S,4R)-4-hydroxy-2-((4-(4-methylthiazol-5-yl)benzyl)carbamoyl)pyrrolidin-1-yl)-3,3-dimethyl-1-oxobutan-2-yl)amino)-8-oxooctanoyl)piperidin-4-yl)-N-methyl-1,4,6,7-tetrahydro-5H-pyrazolo[4,3-c]pyridine-5-carboxamide] | 0.0591 µM | < 20% | – | – | –
CC(=O)N1CCc2c(c(N3CCCc4cc(-c5cnn(C)c5)c(C(F)F)cc43)nn2C2CCN(C(=O)CN3CCN(CCc4cccc5c4C(=O)N(C4CCC(=O)NC4=O)C5=O)CC3)CC2)C1 (stereo not shown) [P-169, 4-(2-(4-(2-(4-(5-Acetyl-3-(7-(difluoromethyl)-6-(1-methyl-1H-pyrazol-4-yl)-3,4-dihydroquinolin-1(2H)-yl)-4,5,6,7-tetrahydro-1H-pyrazolo[4,3-c]pyridin-1-yl)piperidin-1-yl)-2-oxoethyl)piperazin-1-yl)ethyl)-2-(2,6-dioxopiperidin-3-yl)isoindoline-1,3-dione] | > 0.5 µM | < 20% | – | – | –
